“Also recorded” adds a separate entry of the source.
What was measured:
MRSA ATCC 43300 [1] = assay: Constant concentration time–kill curves; format: cell-based, Staphylococcus aureus
Procedure: Time–kill kinetic assays were performed, which were used to investigate the in vitro bactericidal kinetic effect of compounds 12c, 19c, 22c and tiamulin.
Time–kill curve assays were established with the MIC value to investigate the antibacterial effect of constant drug concentration on MRSA. […] MRSA ATCC 43300 was incubated in MH broth at 37 °C for 4.5 h and diluted to 1 × 10^6 CFU/mL in MH broth. The saline control group was subjected to the same schedule but 0.9% saline water was added instead of the test compound. All the samples were incubated in an oscillating thermostatic at 37 °C, and then 100 μL of the mixture was extracted to 900 μL of sterile saline (0.9%) at 0, 3, 6, 9, 12 and 24 h, respectively. Samples were serially diluted 10-fold in sterile saline (0.9%) and inoculated onto agar plates. The colonies were counted after incubation at 37 °C for 24 h. Three independent experiments were performed according to our previous work. Time–kill curves were constructed by plotting the log10 CFU per millilitre versus time, and the change in bacterial concentration was determined.

MRSA ATCC 43300 [2] = assay: Post-antibiotic effect (PAE); format: cell-based, Staphylococcus aureus
Procedure: PAE has been considered as pharmacodynamic assistance which provides a reference for the rational formulation of dosing regimen. PAE refers to the temporary suppression of bacterial growth following transient antibiotic treatment. PAE assays were conducted for compounds 12c and 22c.
PAE is calculated from growth curves on the difference in time required for the number (1 log10 CFU/mL) of drug-exposed and unexposed microbes. […] The PAE values of compounds 12c and 22c increased with increasing incubation time.
PAE of compounds 12c and 22c on MRSA ATCC 43300 was determined using MH broth according to our previous work. The final concentration of MRSA was 1 × 10^6 CFU/mL by dilution with MH broth. Compounds 12c, 22c and tiamulin were supplemented in the suspension at a final concentration of 2 × MIC and 4 × MIC, respectively. The negative control group contained untreated MRSA bacterial cells. The test tubes were incubated with a 37 °C constant temperature vibration incubator for 1 and 2 h. After incubation, the test compound was removed from the sample by diluting 1000-fold with the preheated MH broth. Next, 100 μL of suspension from each culture was 10-fold diluted in sterile saline and inoculated on MH agar plates at 0, 2, 4, 6 and 8 h after inoculation. The number of colonies was calculated after incubation at 37 °C for 24 h. The experiments were performed in triplicate.

RAW 264.7 cells = assay: Cytotoxicity MTT assay; format: cell-based, mouse; details: 16 h
Procedure: (§1) The presence of compounds can influence cellular basic physiological processes, suppress proliferation and even reduce cell survival, etc. In the community, MRSA generally causes respiratory infection. Therefore, cytotoxicity was evaluated to explore the effect of compounds 12c and 22c on the viability of the respiratory tract cells 16-HBE (human bronchial epithelial cell line). RAW 264.7 (mouse peritoneal macrophage cell line) and Caco-2 (human epithelial colorectal adenocarcinoma cell line) were also used to evaluate the cytotoxicity of compounds 12c and 22c by MTT assay.
Cytotoxicity of the test compounds was assessed using the conventional MTT method. RAW 264.7 murine macrophage cells, Caco-2 cells and 16-HBE were used in this experiment. The cells were seeded into 96-well plates at a density of 1.0 × 10^5 cells per well. After 4 h at 37 °C, the cells were treated with compounds 12c and 22c at various concentrations and incubated at 37 °C for 16 h. Next, MTT (0.5 mg/mL in PBS, 100 μL/well) was added sequentially to each well in a humidified atmosphere of 95% air and 5% CO2 incubator and the incubation continued for an additional four hours. […] At the end of this period, the absorbance was measured at 490 nm by a microplate spectrophotometer (BIO-TEK Instruments, Winooski, VT, USA).

16-HBE cells = assay: Cytotoxicity MTT assay; format: cell-based, human; details: 1~8 μg/mL, 16 h
Procedure: as §1
(§2) Cytotoxicity of the test compounds was assessed using the conventional MTT method. RAW 264.7 murine macrophage cells, Caco-2 cells and 16-HBE were used in this experiment. The cells were seeded into 96-well plates at a density of 1.0 × 10^5 cells per well. After 4 h at 37 °C, the cells were treated with compounds 12c and 22c at various concentrations and incubated at 37 °C for 16 h. Next, MTT (0.5 mg/mL in PBS, 100 μL/well) was added sequentially to each well in a humidified atmosphere of 95% air and 5% CO2 incubator and the incubation continued for an additional four hours. After incubation, the medium was peeled off and DMSO (150 μL/well) was added to dissolve the cells, and then the incubation was continued for 30 min. At the end of this period, the absorbance was measured at 490 nm by a microplate spectrophotometer (BIO-TEK Instruments, Winooski, VT, USA).

Caco-2 cells = assay: Cytotoxicity MTT assay; format: cell-based, human; details: 1~8 μg/mL, 16 h
Procedure: as §1, §2

MRSA ATCC 43300 [3] = assay: Neutropenic murine thigh infection model; format: in vivo; details: neutropenic mice, 20 mg/kg, 24 h after dosing, n = 6/group
Procedure: Therefore, the in vivo efficacy of compounds 12c and 22c were assessed using the murine neutropenic thigh infection model. Mice groups treated with saline and tiamulin were chosen as the negative and positive controls.
Model experiments of neutropenic mouse thigh infection were manipulated as described in the literature. Female, six-week-old, specific-pathogen-free mice weighing approximately 23~26 g were used throughout the study. Mice were rendered neutropenic by injection of cyclophosphamide (Mead Johnson Pharmaceuticals, Evansville, IN) on day 4 (150 mg/kg) and day 1 (100 mg/kg) before the experiment. The neutrophil numbers in mice blood should be <0.1 × 10^9/L [34]. In total, 0.1 mL of MH broth of MRSA (10^7 CFU/mL) was inoculated into each thigh of the neutropenic mice. Mice were divided into 4 groups (6 mice per group), including control (sterile saline), compounds 12c, 22c and tiamulin groups. After 3 h post-infection, the corresponding drugs were injected into each mouse’s thigh. Mice were euthanized following intravenous injection for 24 h. Thigh tissue of each mouse was removed, collected, weighed and homogenized in 3 mL of ice sterile saline. Six ten-fold serial dilutions were performed and 25 μL of the bacterial solution from each tube was plated on MH agar plates. The resulting colonies were counted after 24 h incubation at 37 °C. The protocol for this study was reviewed and approved by the Institutional Animal Care and Use Committee of the South China Agricultural University.

With C=C[C@]1(C)C[C@@H](OC(=O)CSc2ccc(Nc3nc(Cl)nc4c3cnn4-c3ccc(F)c(F)c3)cc2)[C@]2(C)[C@H](C)CC[C@]3(CCC(=O)[C@H]32)[C@@H](C)[C@@H]1O [Compound 22c, 22-[4-(6-Chloro-1-(3,4-difluorophenyl)-1H-pyrazolo[3,4-d]pyrimidine-4-yl)amino-Phenylsulfanyl]-22-deoxypleuromutilin] the “MRSA killed in time–kill assay” value (MRSA ATCC 43300 [1]; 2 × MIC, 24 h incubation) was 99.99%, the “reduction of MRSA in time–kill assay” value (MRSA ATCC 43300 [1]; 2 × MIC, 24 h incubation) was −4.47 log10 CFU/mL and the “reduction of MRSA in time–kill assay” value (MRSA ATCC 43300 [1]; 4 × MIC) was −5.79 log10 CFU/mL. For the same compound, the “type of bactericidal kinetics” value (MRSA ATCC 43300 [1]; time–kill curves, 1 to 32 × MIC) was “time-dependent”, the PAE (MRSA ATCC 43300 [2]; 2 × MIC, exposure for 1 h) was 0.92 h and the PAE (MRSA ATCC 43300 [2]; 2 × MIC, exposure for 2 h) was 2.18 h. For the same compound, the PAE (MRSA ATCC 43300 [2]; 4 × MIC, exposure for 1 h) was 0.93 h, the PAE (MRSA ATCC 43300 [2]; 4 × MIC, exposure for 2 h) was 2.68 h and the “effect on viability of RAW 264.7 cells” value (RAW 264.7 cells; 8 µg/mL) was “slight inhibition”. For the same compound, the “effect on viability of RAW 264.7 cells” value (RAW 264.7 cells; ≤8 μg/mL) was “no significant inhibition”, the “effect on viability of 16-HBE cells” value (16-HBE cells) was “no significant inhibition; also recorded: did not affect the viability” and the “effect on viability of Caco-2 cells” value (Caco-2 cells) was “no significant inhibition; also recorded: did not affect the viability”. The “reduction of MRSA load in thigh vs growth control” value (MRSA ATCC 43300 [3]) was −0.93 log10 CFU/mL and the melting point was 109 to 113 °C.
